Test results: PubChem BioAssay (NCI)
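Following 48 hours of exposure in 96-well plates, responses at five concentrations were used to interpolate endpoints linearly. At the TGI there is no net growth.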

What was measured:
Assay in all cases: NCI tumour cell line growth inhibition, 48 h
[1] = tested on: OVCAR-8 ovarian
[2] = tested on: UACC-257 melanoma
[3] = tested on: CAKI-1 renal
[4] = tested on: HCT-15 colon
[5] = tested on: IGROV1 ovarian
[6] = tested on: SR leukemia
[7] = tested on: CCRF-CEM leukemia
[8] = tested on: T-47D breast
[9] = tested on: K-562 leukemia
[10] = tested on: OVCAR-4 ovarian
[11] = tested on: RPMI-8226 leukemia
[12] = tested on: HOP-62 NSCLC
[13] = tested on: HCC-2998 colon
[14] = tested on: HOP-92 NSCLC
[15] = tested on: SF-295 CNS
[16] = tested on: SW-620 colon
[17] = tested on: DU-145 prostate
[18] = tested on: NCI-H23 lung
[19] = tested on: HT29 colon
[20] = tested on: OVCAR-5 ovarian
[21] = tested on: SNB-75 CNS
[22] = tested on: COLO 205 colon
[23] = tested on: KM12 colon
[24] = tested on: NCI-H522 lung
[25] = tested on: SF-268 CNS
[26] = tested on: MDA-N
[27] = tested on: U251 CNS
[28] = tested on: MCF7 breast
[29] = tested on: SN12C renal
[30] = tested on: NCI/ADR-RES ovarian
[31] = tested on: HS 578T breast
[32] = tested on: NCI-H226 lung
[33] = tested on: UO-31 renal
[34] = tested on: UACC-62 melanoma
[35] = tested on: MDA-MB-231 breast
[36] = tested on: BT-549 breast
[37] = tested on: LOX IMVI melanoma
[38] = tested on: M14 melanoma
[39] = tested on: ACHN renal
[40] = tested on: A549 NSCLC
[41] = tested on: SK-OV-3 ovarian
[42] = tested on: RXF 393 renal
[43] = tested on: TK-10 renal
[44] = tested on: SK-MEL-2 melanoma
[45] = tested on: PC-3 prostate
[46] = tested on: HCT-116 colon
[47] = tested on: 786-0 renal
[48] = tested on: MALME-3M melanoma
[49] = tested on: A498 renal
[50] = tested on: MDA-MB-435
[51] = tested on: HL-60(TB) leukemia
[52] = tested on: SK-MEL-28 melanoma
[53] = tested on: SK-MEL-5 melanoma
[54] = tested on: EKVX NSCLC
[55] = tested on: OVCAR-3 ovarian
[56] = tested on: NCI-H460 lung
[57] = tested on: SNB-19 CNS
[58] = tested on: DLD-1 colon
[59] = tested on: SNB-78 CNS
[60] = tested on: LXFL 529 NSCLC
[61] = tested on: KM20L2 colon
[62] = tested on: MOLT-4 leukemia
[63] = tested on: DMS 114 small cell lung
[64] = tested on: M19-MEL melanoma
[65] = tested on: SF-539 CNS
[66] = tested on: DMS 273 small cell lung
[67] = tested on: XF 498 CNS
[68] = tested on: RXF-631 renal

Measured: TGI

c1ccc(-c2nnn(CCN3CCCCC3)n2)cc1
not listed: [58] | [59] | [60] | [61] | [62] | [63] | [64] | [65] | [66] | [67] | [68]
> 100 µM: all other assays above

O=C1C=CC2(C=C1)C[C@H](NC(=O)C(F)(F)F)C(=O)O2
50.9 µM: [7]
37.7 µM: [34]
40.3 µM: [48]
32.1 µM: [24]
65.8 µM: [9]
69.4 µM: [18]
36.1 µM: [51]
38.3 µM: [52]
63.8 µM: [64]
53.1 µM: [58]
69.1 µM: [60]
51 µM: [37]
39.6 µM: [54]
not listed: [5] | [8] | [14] | [16] | [17] | [26] | [28] | [30] | [31] | [35] | [36] | [44] | [45] | [50] | [66] | [67] | [68]
> 100 µM: all other assays above

CC(C)C1(O)C(=O)N(c2c(F)c(F)c(F)c(F)c2F)C(=S)N1CCSc1ccccc1 (stereo not given)
32.8 µM: [50]
34.8 µM: [13]
30.3 µM: [16] | [52]
31.1 µM: [21]
24.7 µM: [3]
22.2 µM: [14]
32.4 µM: [2]
31 µM: [30] | [41]
32.7 µM: [53]
32.1 µM: [15] | [27] | [46]
34.6 µM: [12]
29.8 µM: [49]
32.9 µM: [18] | [22]
30.5 µM: [24]
28.9 µM: [33]
26.7 µM: [9]
31.6 µM: [48]
33 µM: [4] | [20]
31.7 µM: [7] | [28]
29.2 µM: [40] | [45] | [51]
33.6 µM: [8]
28.7 µM: [11]
35.1 µM: [65]
27.9 µM: [43]
31.5 µM: [23]
31.3 µM: [26] | [39]
43 µM: [6]
33.5 µM: [54]
29.3 µM: [29]
33.8 µM: [1]
30.6 µM: [34]
29.1 µM: [10]
32.5 µM: [19] | [44]
39.7 µM: [31]
33.1 µM: [42]
33.2 µM: [25]
38.7 µM: [32]
30.1 µM: [37] | [55]
31.9 µM: [38] | [57]
31.2 µM: [5]
30.4 µM: [36]
26.4 µM: [35]
38.4 µM: [56]
33.3 µM: [47]
30.7 µM: [62]
30.9 µM: [17]

COC(OC)c1cc2c(cc1C(=O)[C@@]13CCC[C@@H]1NC(=O)O3)OCO2
not listed: [4] | [6] | [8] | [11] | [13] | [17] | [22] | [26] | [28] | [30] | [31] | [35] | [36] | [37] | [40] | [45] | [50] | [60] | [61] | [68]
> 100 µM: all other assays above

COc1cc2c(c(OC)c1OC)-c1ccc(SC)c(=O)cc1[C@@H](NC(=O)c1ccc(Cl)cc1)CC2
0.169 µM: [60]
5.47 µM: [44]
10.5 µM: [56]
56.3 µM: [34]
0.0265 µM: [22]
2.64 µM: [55]
2.3 µM: [38]
0.026 µM: [4]
> 100 µM: [1] | [2] | [66] | [5] | [6] | [7] | [9] | [10] | [21] | [58] | [25] | [39] | [62] | [40] | [64] | [43] | [68] | [52]
14.1 µM: [37]
11.2 µM: [19]
95.3 µM: [11]
< 0.01 µM: [13] | [15] | [27] | [32] | [61] | [65] | [49] | [51] | [53]
19.4 µM: [42]
62.6 µM: [33]
15.8 µM: [47]
5.03 µM: [48]
41.3 µM: [16]
11.1 µM: [57]
12.7 µM: [29]
11.3 µM: [46]
2.03 µM: [12]

COC(=O)CC(C(C(C)=O)C(=O)OCc1ccccc1)N1C(=O)OCC1c1ccccc1 (stereo not given)
71.9 µM: [21]
not listed: [3] | [8] | [14] | [17] | [20] | [23] | [24] | [26] | [28] | [30] | [31] | [35] | [36] | [41] | [45] | [50] | [59]
> 100 µM: all other assays above

O=C(Nc1cccc(NC(=O)c2cc(=O)c3ccccc3o2)n1)c1cc(=O)c2ccccc2o1
85.6 µM: [33]
57.8 µM: [66]
48.3 µM: [24]
92 µM: [63]
52.7 µM: [14]
81.3 µM: [11]
not listed: [6] | [8] | [15] | [17] | [19] | [26] | [28] | [29] | [30] | [31] | [32] | [35] | [36] | [45] | [50] | [67]
> 100 µM: all other assays above
